Measurements published in the NIST ThermoML archive (doi:10.1021/acs.jced.5b00789).
“And” between values parts separate entries of the source, which are not always exact repeats. Equal entries are not always repeated. Numbers after ± are expanded uncertainties.

Settings: Liquid

SMILES | mass density (343.2 K, 101.33 kPa) | mass density (353.2 K, 101.33 kPa) | mass density (363.2 K, 101.33 kPa) | mass density (373.2 K, 101.33 kPa) | mass density (293.2 K, 101.33 kPa) | mass density (303.2 K, 101.33 kPa) | mass density (313.2 K, 101.33 kPa) | mass density (323.2 K, 101.33 kPa) | mass density (333.2 K, 101.33 kPa) | mass density (293.2 K) | mass density (303.2 K) | mass density (313.2 K) | mass density (323.2 K) | mass density (333.2 K) | mass density (343.2 K) | mass density (353.2 K) | mass density (363.2 K) | mass density (373.2 K)
CCn1c2ccccc2c2ccccc21 [9-ethylcarbazole] | 1062.78 ± 6.6 kg/m3 and 1062.93 ± 6.6 kg/m3 and 1063.05 ± 6.6 kg/m3 | 1055.37 ± 6.4 kg/m3 and 1055.51 ± 6.4 kg/m3 and 1055.63 ± 6.4 kg/m3 | 1048.06 ± 6.3 kg/m3 and 1048.2 ± 6.3 kg/m3 and 1048.32 ± 6.3 kg/m3 | 1040.99 ± 6.1 kg/m3 and 1041.11 ± 6.1 kg/m3 and 1040.85 ± 6.1 kg/m3 | – | – | – | – | – | – | – | – | – | – | – | – | – | –
CC1CCCCC1 [methylcyclohexane] | 728.38 ± 9.1 kg/m3 and 728.56 ± 9.1 kg/m3 and 728.71 ± 9.1 kg/m3 | 720.64 ± 9.3 kg/m3 and 720.82 ± 9.3 kg/m3 and 720.97 ± 9.3 kg/m3 | 713.07 ± 9.4 kg/m3 and 713.24 ± 9.4 kg/m3 and 713.39 ± 9.4 kg/m3 | 705.65 ± 9.6 kg/m3 and 705.82 ± 9.6 kg/m3 and 705.96 ± 9.6 kg/m3 | 769.72 ± 8.2 kg/m3 and 769.91 ± 8.2 kg/m3 and 770.07 ± 8.2 kg/m3 | 761.08 ± 8.4 kg/m3 and 761.27 ± 8.4 kg/m3 and 761.42 ± 8.4 kg/m3 | 752.63 ± 8.6 kg/m3 and 752.82 ± 8.6 kg/m3 and 752.97 ± 8.6 kg/m3 | 744.55 ± 8.8 kg/m3 and 744.71 ± 8.7 kg/m3 and 744.37 ± 8.8 kg/m3 | 736.29 ± 8.9 kg/m3 and 736.47 ± 8.9 kg/m3 and 736.62 ± 8.9 kg/m3 | – | – | – | – | – | – | – | – | –
Cc1ccccc1 [toluene] | – | – | – | – | – | – | – | – | – | 867.3 ± 6.3 kg/m3 and 867.61 ± 6.3 kg/m3 and 867.8 ± 6.3 kg/m3 | 855.63 ± 6.5 kg/m3 and 855.94 ± 6.5 kg/m3 and 856.12 ± 6.5 kg/m3 | 844.27 ± 6.8 kg/m3 and 844.57 ± 6.8 kg/m3 and 844.75 ± 6.8 kg/m3 | 833.51 ± 7 kg/m3 and 833.68 ± 7 kg/m3 and 833.21 ± 7 kg/m3 | 822.43 ± 7.2 kg/m3 and 822.73 ± 7.2 kg/m3 and 822.9 ± 7.2 kg/m3 | 811.93 ± 7.4 kg/m3 and 812.22 ± 7.4 kg/m3 and 812.39 ± 7.4 kg/m3 | 801.69 ± 7.6 kg/m3 and 801.98 ± 7.6 kg/m3 and 802.15 ± 7.6 kg/m3 | 791.71 ± 7.8 kg/m3 and 792 ± 7.8 kg/m3 and 792.16 ± 7.8 kg/m3 | 781.97 ± 8 kg/m3 and 782.26 ± 8 kg/m3 and 782.42 ± 8 kg/m3
